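Five compound concentrations were applied to cells in 96-well plates for 48 hours; endpoints were derived by simple linear interpolation of the resulting dose-response curve. The concentration for 50% growth inhibition is given as GI50.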 Activity calls are given as the source filed them. No stated cut-off is given here; in the data, active = GI50 up to about 1.1 µM and inactive = higher.
What was measured:
Assay in all cases: DTP human tumour cell line panel, 48 h
SK-MEL-2 = test system: SK-MEL-2
DU-145 = test system: DU-145
SNB-75 = test system: SNB-75
OVCAR-3 = test system: OVCAR-3
KM12 = test system: KM12
T47D = test system: T47D
EKVX = test system: EKVX
HT-29 = test system: HT-29
COLO 205 = test system: COLO 205
M14 = test system: M14
ACHN = test system: ACHN
TK-10 = test system: TK-10
SN12C = test system: SN12C
MOLT-4 = test system: MOLT-4
LOX IMVI = test system: LOX IMVI
NCI-H460 = test system: NCI-H460
HL-60 = test system: HL-60
RXF 393 = test system: RXF 393
U-251 = test system: U-251
NCI-H226 = test system: NCI-H226
MCF7 = test system: MCF7
SF-539 = test system: SF-539
NCI/ADR-RES = test system: NCI/ADR-RES
SNB-19 = test system: SNB-19
HOP-62 = test system: HOP-62
PC-3 = test system: PC-3
SK-MEL-5 = test system: SK-MEL-5
Malme-3M = test system: Malme-3M
786-0 = test system: 786-0
CAKI-1 = test system: CAKI-1
RPMI-8226 = test system: RPMI-8226
SK-OV-3 = test system: SK-OV-3
NCI-H23 = test system: NCI-H23
HCT-116 = test system: HCT-116
OVCAR-5 = test system: OVCAR-5
Hs-578T = test system: Hs-578T
CCRF-CEM = test system: CCRF-CEM
OVCAR-4 = test system: OVCAR-4
MDA-MB-435 = test system: MDA-MB-435
K562 = test system: K562
NCI-H522 = test system: NCI-H522
SW-620 = test system: SW-620
SR = test system: SR
SF-295 = test system: SF-295
UACC-62 = test system: UACC-62
IGROV-1 = test system: IGROV-1
A549 = test system: A549
SK-MEL-28 = test system: SK-MEL-28
HCT-15 = test system: HCT-15
UACC-257 = test system: UACC-257
UO-31 = test system: UO-31
SF-268 = test system: SF-268
OVCAR-8 = test system: OVCAR-8
MDA-N = test system: MDA-N
BT-549 = test system: BT-549
HCC 2998 = test system: HCC 2998
HOP-92 = test system: HOP-92

`CCOP(=O)(OCC)OC1CC(n2cc(C)c(=O)n(C)c2=O)OC1CO[Si](C)(C)C(C)(C)C` (configuration not stated) was tested, and the GI50 (SK-MEL-2) was > 100 µM (inactive), the GI50 (DU-145) was > 100 µM (inactive) and the GI50 (SNB-75) was 75.9 µM (inactive). For the same molecule, the GI50 (OVCAR-3) was > 100 µM (inactive), the GI50 (KM12) was 75.2 µM (inactive) and the GI50 (T47D) was 17.8 µM (inactive). The GI50 (EKVX) was 24.4 µM (inactive), the GI50 (HT-29) was > 100 µM (inactive) and the GI50 (COLO 205) was > 100 µM (inactive). The GI50 (M14) was > 100 µM (inactive), the GI50 (ACHN) was > 100 µM (inactive) and the GI50 (TK-10) was > 100 µM (inactive). The GI50 (SN12C) was 7.06 µM (inactive), the GI50 (MOLT-4) was 37 µM (inactive) and the GI50 (LOX IMVI) was > 100 µM (inactive). For the same molecule, the GI50 (NCI-H460) was 58.3 µM (inactive), the GI50 (HL-60) was 18.1 µM (inactive) and the GI50 (RXF 393) was 21.6 µM (inactive). For the same molecule, the GI50 (U-251) was > 100 µM (inactive), the GI50 (NCI-H226) was > 100 µM (inactive) and the GI50 (MCF7) was 73.1 µM (inactive). The GI50 (SF-539) was > 100 µM (inactive), the GI50 (NCI/ADR-RES) was 46.5 µM (inactive) and the GI50 (SNB-19) was > 100 µM (inactive). The GI50 (HOP-62) was 79.6 µM (inactive), the GI50 (PC-3) was 29.1 µM (inactive) and the GI50 (SK-MEL-5) was 58.9 µM (inactive). The GI50 (Malme-3M) was > 100 µM (inactive), the GI50 (786-0) was > 100 µM (inactive) and the GI50 (CAKI-1) was > 100 µM (inactive). For the same molecule, the GI50 (RPMI-8226) was 25.2 µM (inactive), the GI50 (SK-OV-3) was > 100 µM (inactive) and the GI50 (NCI-H23) was > 100 µM (inactive). The GI50 (HCT-116) was 40.8 µM (inactive), the GI50 (OVCAR-5) was > 100 µM (inactive) and the GI50 (Hs-578T) was 46.6 µM (inactive). The GI50 (CCRF-CEM) was 61.2 µM (inactive), the GI50 (OVCAR-4) was > 100 µM (inactive) and the GI50 (MDA-MB-435) was > 100 µM (inactive). The GI50 (K562) was 48.4 µM (inactive), the GI50 (NCI-H522) was 32.1 µM (inactive) and the GI50 (SW-620) was > 100 µM (inactive). The GI50 (SR) was 37.7 µM (inactive), the GI50 (SF-295) was 67 µM (inactive) and the GI50 (UACC-62) was > 100 µM (inactive). For the same molecule, the GI50 (IGROV-1) was > 100 µM (inactive), the GI50 (A549) was 55.1 µM (inactive) and the GI50 (SK-MEL-28) was > 100 µM (inactive). The GI50 (HCT-15) was over 100 µM, the GI50 (UACC-257) was > 100 µM (inactive) and the GI50 (UO-31) was 2.9 µM (inactive). The GI50 (SF-268) was > 100 µM (inactive), the GI50 (OVCAR-8) was > 100 µM (inactive) and the GI50 (MDA-N) was > 100 µM (inactive). The GI50 (BT-549) was 55.1 µM (inactive) and the GI50 (HCC 2998) was 62.4 µM (inactive).

With `O=C(NCC(C(=O)OCc1ccccc1)C(=O)OCc1ccccc1)OCc1ccccc1` the GI50 (SK-MEL-2) was > 100 µM (inactive), the GI50 (DU-145) was > 100 µM (inactive) and the GI50 (SNB-75) was > 100 µM (inactive). For the same molecule, the GI50 (OVCAR-3) was > 100 µM (inactive), the GI50 (KM12) was > 100 µM (inactive) and the GI50 (EKVX) was 72.3 µM (inactive). The GI50 (HT-29) was > 100 µM (inactive), the GI50 (COLO 205) was > 100 µM (inactive) and the GI50 (M14) was > 100 µM (inactive). For the same molecule, the GI50 (ACHN) was > 100 µM (inactive), the GI50 (TK-10) was > 100 µM (inactive) and the GI50 (SN12C) was > 100 µM (inactive). The GI50 (MOLT-4) was 19.2 µM (inactive), the GI50 (NCI-H460) was 94.6 µM (inactive) and the GI50 (RXF 393) was 77.4 µM (inactive). For the same molecule, the GI50 (U-251) was 85.7 µM (inactive), the GI50 (NCI-H226) was 50.4 µM (inactive) and the GI50 (MCF7) was 49.3 µM (inactive). For the same molecule, the GI50 (SF-539) was > 100 µM (inactive), the GI50 (HOP-92) was > 100 µM (inactive) and the GI50 (NCI/ADR-RES) was 42.6 µM (inactive). The GI50 (SNB-19) was > 100 µM (inactive), the GI50 (HOP-62) was > 100 µM (inactive) and the GI50 (PC-3) was 35.4 µM (inactive). For the same molecule, the GI50 (SK-MEL-5) was 35.9 µM (inactive), the GI50 (Malme-3M) was > 100 µM (inactive) and the GI50 (786-0) was > 100 µM (inactive). The GI50 (CAKI-1) was > 100 µM (inactive), the GI50 (RPMI-8226) was > 100 µM (inactive) and the GI50 (SK-OV-3) was > 100 µM (inactive). For the same molecule, the GI50 (NCI-H23) was 59.3 µM (inactive), the GI50 (OVCAR-5) was > 100 µM (inactive) and the GI50 (Hs-578T) was > 100 µM (inactive). The GI50 (MDA-MB-435) was > 100 µM (inactive), the GI50 (K562) was 60.1 µM (inactive) and the GI50 (NCI-H522) was 72.6 µM (inactive). For the same molecule, the GI50 (SW-620) was > 100 µM (inactive), the GI50 (SR) was 37.9 µM (inactive) and the GI50 (SF-295) was > 100 µM (inactive). For the same molecule, the GI50 (UACC-62) was > 100 µM (inactive), the GI50 (IGROV-1) was > 100 µM (inactive) and the GI50 (A549) was 63.8 µM (inactive). The GI50 (SK-MEL-28) was > 100 µM (inactive), the GI50 (HCT-15) was over 100 µM and the GI50 (UACC-257) was > 100 µM (inactive). The GI50 (UO-31) was 47.9 µM (inactive), the GI50 (SF-268) was > 100 µM (inactive) and the GI50 (OVCAR-8) was > 100 µM (inactive). For the same molecule, the GI50 (MDA-N) was > 100 µM (inactive), the GI50 (BT-549) was 38.8 µM (inactive) and the GI50 (HCC 2998) was > 100 µM (inactive).

Reference: ChEMBL document CHEMBL1201862, “PubChem BioAssay data set” (2004)
